17 molecules from ChEMBL document CHEMBL3400115, “Chemical constituents from Kandelia candel with their inhibitory effects on pro-inflammatory cytokines production in LPS-stimulated bone marrow-derived dendritic cells (BMDCs)” (Bioorg Med Chem Lett, 2015) can be followed below.

Where only a bound is given, the exact number is not on record here.

Holding throughout (assay type): functional
The nature of test [1]: Inhibition of LPS-induced IL-12 p40 production in wild-type C57BL/6 mouse BMDC pretreated with compound for 1 hr before LPS treatment measured 16 hrs by ELISA. (In general: An ELISA detects its analyte on a solid surface through an enzyme-linked reagent.)
Test [2] in a line: Inhibition of LPS-induced IL-6 production in wild-type C57BL/6 mouse BMDC pretreated with compound for 1 hr before LPS treatment measured 16 hrs by ELISA.
A short description of test [3]: Inhibition of LPS-induced TNF-alpha production in wild-type C57BL/6 mouse BMDC pretreated with compound for 1 hr before LPS treatment measured 16 hrs by ELISA.

`COc1cc([C@H]2OC[C@H]3[C@@H]2CO[C@@H]3c2cc(OC)c(O[C@@H]3O[C@H](CO)[C@@H](O)[C@H](O)[C@H]3O)c(OC)c2)cc(OC)c1O`: the IC50 in test [1], in test [2] and in test [3] was more than 50 µM throughout.

As to `COc1cc(-c2oc3cc(O)cc(O)c3c(=O)c2O[C@@H]2O[C@H](CO)[C@@H](O)[C@H](O)[C@H]2O)ccc1O`, the IC50 in test [1], in test [2] and in test [3] was more than 50 µM each time.

As to `CC1=C(CC[C@H](C)O)C(C)(C)C[C@H](O[C@@H]2O[C@H](CO)[C@@H](O)[C@H](O)[C@H]2O)C1`, the half-inhibitory concentration (IC50) in test [1], in test [2] and in test [3] was more than 50 µM in each case.

With `CC(C)(O)[C@H]1CC[C@@]2(C)[C@@H]3C[C@@H](O[C@@H]4O[C@H](CO)[C@@H](O)[C@H](O)[C@H]4O)[C@]2(C)[C@H](O)C31`, the IC50 in test [1], in test [2] and in test [3] was more than 50 µM throughout.

Consider `CC1=CC(=O)CC(C)(C)[C@H]1CC[C@H](C)O[C@@H]1O[C@H](CO)[C@@H](O)[C@H](O)[C@H]1O`, for which the IC50 in test [1], in test [2] and in test [3] was more than 50 µM throughout.

On to `COc1cc([C@@H](O)[C@H](O)CO)cc(OC)c1O` (relative stereo), for which the values for the IC50 in test [1], in test [2] and in test [3] were more than 50 µM, more than 50 µM and 28.7 µM, respectively.

In the case of `COc1cc([C@@H](O)[C@@H](O)CO)cc(OC)c1O` (relative stereo), the IC50 in test [1], in test [2] and in test [3] was more than 50 µM each time.

Consider `CC1=CC(=O)CC(C)(C)[C@@]1(O)/C=C/[C@H](C)O[C@@H]1O[C@H](CO)[C@@H](O)[C@H](O)[C@H]1O` [6S,9S-ROSEOSIDE], for which the IC50 in test [1] was more than 50 µM; in test [2], 0.07 µM; in test [3] it was 49.9 µM.

For `Oc1cc(O)c2c(c1)O[C@H](c1ccc(O)c(O)c1)[C@H](O)C2` [(-)-EPICATECHIN], the IC50 in test [1], in test [2] and in test [3] was more than 50 µM throughout.

Take `C[C@@H]1O[C@@H](Oc2c(-c3ccc(O)cc3)oc3cc(O)cc(O)c3c2=O)[C@H](O)[C@H](O)[C@H]1O` [AFZELIN]: the IC50 in test [1], in test [2] and in test [3] was more than 50 µM each time.

As for `O=C(O)/C=C/c1ccc(O)c(O)c1` [CAFFEIC ACID], the concentration for half-maximal inhibition (IC50) in test [1], in test [2] and in test [3] was more than 50 µM each time.

On to `O=C(/C=C/c1ccc(O)c(O)c1)O[C@@H]1C[C@](O)(C(=O)O)C[C@@H](O)[C@H]1O` [CHLOROGENIC ACID], for which the IC50 in test [1], in test [2] and in test [3] was more than 50 µM throughout.

As for `Oc1cc(O)c2c(c1)O[C@H](c1ccc(O)c(O)c1)[C@@H](O)C2` [CIANIDANOL], the IC50 in test [1], in test [2] and in test [3] was more than 50 µM throughout.

Consider `O=c1c(O[C@@H]2O[C@H](CO)[C@@H](O)[C@H](O)[C@H]2O)c(-c2ccc(O)c(O)c2)oc2cc(O)cc(O)c12` [ISOQUERCETIN], for which the half-maximal inhibitory concentration (IC50) in test [1], in test [2] and in test [3] was more than 50 µM each time.

On to `COc1cc(-c2oc3cc(O)cc(O)c3c(=O)c2O[C@@H]2O[C@H](CO[C@@H]3O[C@@H](C)[C@H](O)[C@@H](O)[C@H]3O)[C@@H](O)[C@H](O)[C@H]2O)ccc1O` [NARCISSIN], for which the IC50 in test [1], in test [2] and in test [3] was more than 50 µM throughout.

As to `O=C(O)c1ccc(O)c(O)c1` [PROTOCATECHUIC ACID], the half-inhibitory concentration (IC50) in test [1], in test [2] and in test [3] was more than 50 µM in each case.

Regarding `C[C@@H]1O[C@@H](OC[C@H]2O[C@@H](Oc3c(-c4ccc(O)c(O)c4)oc4cc(O)cc(O)c4c3=O)[C@H](O)[C@@H](O)[C@@H]2O)[C@H](O)[C@H](O)[C@H]1O` [RUTIN], the IC50 in test [1], in test [2] and in test [3] was more than 50 µM in each case.

By IC50 is commonly meant the midpoint of a concentration-inhibition curve.
